According to patent publication US9029337B2, “Modulation of factor 7 expression” (Isis Pharmaceuticals, Inc., priority 2007, dated 2015):
Strand notation (5' to 3'): a small letter for the sugar, then the base; units joined by * are phosphorothioate-linked, units joined directly phosphodiester-linked; [ ] holds rarer units or linkages, { } end groups; capitals alone tell only the bases. e = 2'-O-(2-methoxyethyl) (MOE); [5mC] = 5-methylcytosine; d = 2'-deoxy (DNA)

Tested on: human Factor 7 mRNA
Assay: Antisense inhibition of human Factor 7 mRNA in HepB3 cells, 50 nM antisense oligonucleotide, lipofectin
Format: cell-based
Conditions: for % Inhibition: lipofectin, approximately 24 hours; for % Inhibition (human Factor 7 mRNA levels): oligonucleotides targeted to nucleobases 11830 to 11869 of SEQ ID NO: 1 (Table 9)
Outline: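 Readout is percent reduction of Factor 7 message compared with untreated cells, after correction for total RNA content quantified by RIBOGREEN®. Cultures were seeded at 4,000 cells per well and treated for about 24 hours before RNA extraction.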

[1] = 50 nM antisense oligonucleotide, Factor 7 mRNA by real-time RT-PCR (RTS 2927), relative to untreated control

Row | Substance | % Inhibition [1] [%] | further results
1 | 416534 (antisense eA*eT*eG*e[5mC]*eA*d[5mC]*dA*d[5mC]*d[5mC]*dA*dG*dG*dG*d[5mC]*dT*eG*e[5mC]*eT*eG*eG) [compound 416534] | 32 | 
2 | 416535 (antisense eG*e[5mC]*eA*eG*eG*dA*dT*dG*d[5mC]*dA*d[5mC]*dA*d[5mC]*d[5mC]*dA*eG*eG*eG*e[5mC]*eT) [compound 416535] | 47 | 
3 | 416536 (antisense e[5mC]*eG*eG*eG*eA*dA*dG*dG*d[5mC]*d[5mC]*dT*dG*d[5mC]*d[5mC]*d[5mC]*eT*eG*e[5mC]*eA*eG) [compound 416536] | 23 | 
4 | 416537 (antisense eT*eG*eA*e[5mC]*e[5mC]*dA*d[5mC]*dT*d[5mC]*dT*dT*d[5mC]*d[5mC]*dG*dA*eG*e[5mC]*eA*eG*e[5mC]) [compound 416537] | 55 | 
5 | 416538 (antisense e[5mC]*eG*eT*eG*eG*dA*d[5mC]*dT*dG*dA*dT*d[5mC]*d[5mC]*dA*dA*eA*eG*eG*eA*e[5mC]) [compound 416538] | 46 | 
6 | 416539 (antisense eG*eA*e[5mC]*eA*eG*dA*dG*d[5mC]*d[5mC]*dT*dG*dA*dG*d[5mC]*dT*eT*eG*eG*e[5mC]*eA) [compound 416539] | 53 | 
7 | 416540 (antisense eG*eG*eA*e[5mC]*eT*dG*dG*dT*dG*dT*d[5mC]*dA*dT*d[5mC]*dT*eG*eG*eG*eA*e[5mC]) [compound 416540] | 38 | 
8 | 416541 (antisense e[5mC]*e[5mC]*eA*e[5mC]*e[5mC]*d[5mC]*dT*dT*dG*dG*dT*dG*d[5mC]*d[5mC]*d[5mC]*eA*eG*eA*eT*e[5mC]) [compound 416541] | 53 | 
9 | 416542 (antisense e[5mC]*eA*eG*eG*eG*dT*dG*d[5mC]*d[5mC]*d[5mC]*dA*dT*d[5mC]*d[5mC]*dT*eA*eG*eT*e[5mC]*eA) [compound 416542] | 56 | 
10 | 416543 (antisense eT*e[5mC]*e[5mC]*eT*eG*d[5mC]*dG*dA*dG*dT*dG*dG*dG*dA*dG*eT*eT*eG*eG*eA) [compound 416543] | 0 | 
11 | 416544 (antisense eA*eT*e[5mC]*e[5mC]*e[5mC]*dA*dT*dT*dT*dT*d[5mC]*d[5mC]*d[5mC]*dA*dG*eG*eA*eG*e[5mC]*e[5mC]) [compound 416544] | 58 | 
12 | 416545 (antisense eA*eG*eA*eA*eA*d[5mC]*dA*dT*d[5mC]*d[5mC]*d[5mC]*dA*dT*dT*dT*eT*e[5mC]*e[5mC]*e[5mC]*eA) [compound 416545] | 8 | 
13 | 416546 (antisense e[5mC]*e[5mC]*eA*eG*eG*d[5mC]*dT*dG*dG*dT*dT*dT*dG*dG*dA*eG*eA*eA*eA*e[5mC]) [compound 416546] | 21 | 
14 | 416547 (antisense eA*eT*eG*eA*eA*dA*dT*dT*d[5mC]*dT*dA*d[5mC]*d[5mC]*dT*dA*eA*eA*eG*eA*eT) [compound 416547] | 0 | 
15 | 416548 (antisense eA*eG*eG*eT*eG*dA*dA*dT*dG*dA*dA*dA*dT*dT*d[5mC]*eT*eA*e[5mC]*e[5mC]*eT) [compound 416548] | 29 | 
16 | 416550 (antisense eT*eG*eG*e[5mC]*eT*dG*dG*d[5mC]*dT*dG*dA*dG*dG*dA*dG*eA*e[5mC]*eA*eA*eT) [compound 416550] | 55 | 
17 | 416551 (antisense e[5mC]*eA*eG*eA*eA*dA*d[5mC]*dA*d[5mC]*d[5mC]*d[5mC]*dA*dT*d[5mC]*d[5mC]*eT*e[5mC]*eT*eG*eA) [compound 416551] | 19 | 
18 | 416552 (antisense eT*e[5mC]*eT*eG*e[5mC]*dA*d[5mC]*dA*dG*dG*dG*dT*dA*dG*dA*e[5mC]*e[5mC]*e[5mC]*eT*e[5mC]) [compound 416552] | 46 | 
19 | 416553 (antisense eG*eG*eT*eT*e[5mC]*dT*d[5mC]*dT*dG*d[5mC]*dA*d[5mC]*dA*dG*dG*eG*eT*eA*eG*eA) [compound 416553] | 56 | 
20 | 416554 (antisense eA*eA*eA*eG*eA*dT*d[5mC]*d[5mC]*d[5mC]*dA*d[5mC]*d[5mC]*dT*d[5mC]*dA*eA*eA*eG*eA*eG) [compound 416554] | 7 | 
21 | 416555 (antisense eA*eA*eA*eG*eA*dT*d[5mC]*dA*dG*dG*d[5mC]*dA*dA*dA*dG*eA*eT*e[5mC]*e[5mC]*e[5mC]) [compound 416555] | 6 | 
22 | 416556 (antisense eA*eT*eA*eG*e[5mC]*dT*dT*dT*dG*dA*dT*d[5mC]*d[5mC]*dA*dA*eT*eG*e[5mC]*eT*e[5mC]) [compound 416556] | 53 | 
23 | 416557 (antisense eT*e[5mC]*e[5mC]*e[5mC]*eA*dG*dG*d[5mC]*dA*dA*dA*dG*d[5mC]*dT*dG*e[5mC]*eT*e[5mC]*eA*eG) [compound 416557] | 56 | 
24 | 416558 (antisense eT*eG*eA*e[5mC]*eA*dG*d[5mC]*dA*d[5mC]*dG*dA*dA*dG*d[5mC]*d[5mC]*e[5mC]*eA*eG*eA*eG) [compound 416558] | 19 | 

Row | Substance | % Inhibition [1] [%] | further results
25 | 416559 (antisense eG*e[5mC]*e[5mC]*eA*eT*dT*dT*d[5mC]*dT*dA*dG*dG*dT*d[5mC]*dT*eG*e[5mC]*eA*eG*eG) [compound 416559] | 25 | 
26 | 416560 (antisense eT*eA*eA*eA*eA*d[5mC]*dT*dT*dT*dA*dT*dT*dT*dA*d[5mC]*eA*eA*eG*eA*eG) [compound 416560] | 0 | 
27 | 416561 (antisense eG*eG*eT*eG*eT*dG*dT*dT*d[5mC]*d[5mC]*d[5mC]*dA*dT*dA*dA*eA*eA*e[5mC]*eT*eT) [compound 416561] | 16 | 
28 | 416562 (antisense eA*eA*eA*eG*e[5mC]*dA*dG*dA*dG*d[5mC]*d[5mC]*dA*dG*d[5mC]*dT*e[5mC]*eT*eG*eA*e[5mC]) [compound 416562] | 12 | 
29 | 416563 (antisense eG*e[5mC]*e[5mC]*eT*eG*d[5mC]*dA*dT*dT*dT*d[5mC]*d[5mC]*d[5mC]*dA*dT*eT*eG*eG*e[5mC]*eA) [compound 416563] | 0 | 
30 | 416564 (antisense eG*e[5mC]*e[5mC]*eA*e[5mC]*dT*d[5mC]*dA*d[5mC]*dA*dG*dA*dA*dA*dG*e[5mC]*eT*eG*eG*eA) [compound 416564] | 0 | 
31 | 416565 (antisense e[5mC]*eA*eG*eG*eA*dT*dG*d[5mC]*dT*d[5mC]*dA*dT*dG*dG*d[5mC]*eA*eG*eA*e[5mC]*eA) [compound 416565] | 0 | 
32 | 416566 (antisense eG*eT*eT*eT*eG*dT*dA*dT*dG*dG*dA*dG*dA*dG*dA*e[5mC]*e[5mC]*eA*eA*eT) [compound 416566] | 0 | 
33 | 416567 (antisense eT*eG*eG*eT*eG*dG*d[5mC]*dA*d[5mC]*d[5mC]*dA*dG*dA*dT*dG*eT*e[5mC]*eT*eG*eA) [compound 416567] | 2 | 
34 | 416568 (antisense e[5mC]*eA*eT*eT*eG*dT*dG*d[5mC]*d[5mC]*dT*dG*dG*d[5mC]*dA*d[5mC]*eA*e[5mC]*eA*eG*eG) [compound 416568] | 14 | 
35 | 416569 (antisense eG*e[5mC]*e[5mC]*eT*eG*dG*dT*dG*dT*dG*d[5mC]*dA*d[5mC]*dA*d[5mC]*eA*eT*eT*eG*eT) [compound 416569] | 12 | 
36 | 422085 (antisense eG*e[5mC]*eA*eT*eG*dG*dT*dG*dA*dT*dG*d[5mC]*dT*dT*d[5mC]*eT*eG*eA*eA*eT) [compound 422085] |  | % Inhibition (Table 13 (microwalk), 50 nM): 70%
37 | 422088 (antisense eT*e[5mC]*eA*eG*eG*dG*d[5mC]*dT*dG*dG*dT*dT*dT*dT*dG*eG*eA*eG*eG*eA) [compound 422088] |  | % Inhibition (human Factor 7 mRNA levels): 8%
38 | 422089 (antisense eG*eT*e[5mC]*eA*eG*dG*dG*d[5mC]*dT*dG*dG*dT*dT*dT*dT*eG*eG*eA*eG*eG) [compound 422089] |  | % Inhibition (human Factor 7 mRNA levels): 22%
39 | 422090 (antisense eG*eG*eT*e[5mC]*eA*dG*dG*dG*d[5mC]*dT*dG*dG*dT*dT*dT*eT*eG*eG*eA*eG) [compound 422090] |  | % Inhibition (human Factor 7 mRNA levels): 42%
40 | 422091 (antisense eT*eG*eG*eT*e[5mC]*dA*dG*dG*dG*d[5mC]*dT*dG*dG*dT*dT*eT*eT*eG*eG*eA) [compound 422091] |  | % Inhibition (human Factor 7 mRNA levels): 42%
41 | 422092 (antisense eA*eT*eG*eG*eT*d[5mC]*dA*dG*dG*dG*d[5mC]*dT*dG*dG*dT*eT*eT*eT*eG*eG) [compound 422092] |  | % Inhibition (human Factor 7 mRNA levels): 36%
42 | 422093 (antisense eA*eA*eT*eG*eG*dT*d[5mC]*dA*dG*dG*dG*d[5mC]*dT*dG*dG*eT*eT*eT*eT*eG) [compound 422093] |  | % Inhibition (human Factor 7 mRNA levels): 42%
43 | 422094 (antisense e[5mC]*eA*eA*eT*eG*dG*dT*d[5mC]*dA*dG*dG*dG*d[5mC]*dT*dG*eG*eT*eT*eT*eT) [compound 422094] |  | % Inhibition (human Factor 7 mRNA levels): 48%
44 | 422095 (antisense eA*e[5mC]*eA*eA*eT*dG*dG*dT*d[5mC]*dA*dG*dG*dG*d[5mC]*dT*eG*eG*eT*eT*eT) [compound 422095] |  | % Inhibition (human Factor 7 mRNA levels): 60%
45 | 422097 (antisense eG*eA*eG*eA*e[5mC]*dA*dA*dT*dG*dG*dT*d[5mC]*dA*dG*dG*eG*e[5mC]*eT*eG*eG) [compound 422097] |  | % Inhibition (human Factor 7 mRNA levels): 59%
46 | 422098 (antisense eG*eG*eA*eG*eA*d[5mC]*dA*dA*dT*dG*dG*dT*d[5mC]*dA*dG*eG*eG*e[5mC]*eT*eG) [compound 422098] |  | % Inhibition (human Factor 7 mRNA levels): 53%
47 | 422099 (antisense eA*eG*eG*eA*eG*dA*d[5mC]*dA*dA*dT*dG*dG*dT*d[5mC]*dA*eG*eG*eG*e[5mC]*eT) [compound 422099] |  | % Inhibition (human Factor 7 mRNA levels): 48%
48 | 422100 (antisense eG*eA*eG*eG*eA*dG*dA*d[5mC]*dA*dA*dT*dG*dG*dT*d[5mC]*eA*eG*eG*eG*e[5mC]) [compound 422100] |  | % Inhibition (human Factor 7 mRNA levels): 59%
